Data reported in paper PMC2365028, “Transepithelial Transport and Metabolism of Boronated Dipeptides Across Caco-2 and HCT-8 Cell Monolayers” (Metal-Based Drugs, 1996).
Where “and” joins values, the source holds several entries; their conditions need not be identical. Equal values may be shown once. One block for each molecule: values may come before it. Where a SMILES comes first, the peptide text is derived from it.

How the values were obtained:
Caco-2 cell monolayers = experiment: Apical-to-basal transport and metabolism across Caco-2 cell monolayers (Transwell)
From the text: TRANSEPITHELIAL TRANSPORT AND METABOLISM OF BORONATED DIPEPTIDES ACROSS CACO-2 AND HCT-8 CELL MONOLAYERS Amy L. Elkins,John G. Eley,3, Merrill C. […] This study examined the effect of boronation on the transepithelial transport and metabolism of three glycine-phenylalanine dipeptides in Caco-2 and HCT-8 cell monolayers. […] Oral delivery of proteins and peptides as therapeutic agents is problematic due to their low bioavailability. This is mainly due to both their poor permeability across cellular barriers and to enzymatic degradation that occurs in the gut lumen, brush border, and enterocyte cytoplasm (2). […] Such as a substitution may also have the potential to alter the in vivo bioavailability of dipeptides. […] This study was undertaken to determine the effect of boronation on the transepithelial transport and metabolism of three glycine-phenylalanine dipeptides. […] Caco-2 cells are human colon adenocarcinoma cells first isolated from a primary colonic tumor (4). The cell line undergoes spontaneous enterortic differentiation in culture after reaching cotfflucnce, and morphologically resembles small intestinal epitheliun after three xveeks in culture (5). These morphological characteristics include the development of a brush border region expressing microvilli, occluding junctions, dome formations, and the formation of tight junctions leading to cell polarity. […] The cell line expresses a dipeptide carrier transport system in both the apical and basal membranes (9-10). […] HCT-8 cells are human adenocarcinoma cells from the ileocecal region; as such, these cells may give a truer reflection of gut absorption compared to Caco-2 cells which are derived from the colonic region. The cells produce a polarized differentiated monolayer consisting of enterocyte-like columnar cells that are interconnected by mature tightjunctions and desmosomes and exposed microvilla (11). The structural and functional integrity of the tight junctions of cells grown on polyester filter cups (Falcon, BD) and membrane filter inserts (Transwell(R), Costar) have been confirmed by transmission electron microscopy, transepithelial electrical resistance measurements, and transport of impermeant markers such as mannitol and polyethylene glycol (11, 12). […] Compound//was donated by Boron Biologicals, Inc., Raleigh, NC. Compound 111 was synthesized as follows: L-phenylalanine methyl ester hydrochloride (2.09 g, 9.7 mmol) and dimethylglycine (1 g, 9.7 retool) xvere suspended in 30 ml dry tetrahydrofuran with 10 mmol of triethylamine, dicyclohexyl-carbodiinfide and hydrox3'benzotriazole. The reaction was stirred at room temperature for 48 hours under nitrogen and the solvent was removed under reduced pressure. The product was purified on silica gel, two void volumes of hexane, two void volumes hexane/ethanol (8'1), and then hexane/ethanol (5:1). […] For the transport studies, cells were diluted with growth medium to give a total of […] cells/cm in 1.5 mls. The 1.5 ntis was placed in the apical compartment of a Transwcll(R) (Costar). The Transxvell(R) system is a 6-well plate with each well having an apical compartment capacity of 1.5 ntis, a basal compartment capacity of 2.5 ntis, and a 4.71 cm polycarbonate microporous (0.45 gin) membrane separating the two compartments. Cell monolayers in the Transwell(R) were allowed to grow for 21 days while the medium was replaced every 3 days. The cells were grown in Dulbecco's Modified Eagle Medium (D-MEM) containing L-glutamine and sodium pyruvate at 37C under 5% CO-. and saturated humidity. Additives to the medium included 10% heat- inactivated fetal bovine serum, 10 mM nonessential amino acids, 100 units of penicillin and […] of streptomycin per ml of medium. 278 A.L. Elkins, J.G. Eley, M.C.

in vitro = conditions: human, Caco-2
From the text: TRANSEPITHELIAL TRANSPORT AND METABOLISM OF BORONATED DIPEPTIDES ACROSS CACO-2 AND HCT-8 CELL MONOLAYERS Amy L. Elkins,John G. Eley,3, Merrill C. […] This study examined the effect of boronation on the transepithelial transport and metabolism of three glycine-phenylalanine dipeptides in Caco-2 and HCT-8 cell monolayers. […] Oral delivery of proteins and peptides as therapeutic agents is problematic due to their low bioavailability. This is mainly due to both their poor permeability across cellular barriers and to enzymatic degradation that occurs in the gut lumen, brush border, and enterocyte cytoplasm (2). […] Such as a substitution may also have the potential to alter the in vivo bioavailability of dipeptides. […] This study was undertaken to determine the effect of boronation on the transepithelial transport and metabolism of three glycine-phenylalanine dipeptides. […] Caco-2 cells are human colon adenocarcinoma cells first isolated from a primary colonic tumor (4). The cell line undergoes spontaneous enterortic differentiation in culture after reaching cotfflucnce, and morphologically resembles small intestinal epitheliun after three xveeks in culture (5). These morphological characteristics include the development of a brush border region expressing microvilli, occluding junctions, dome formations, and the formation of tight junctions leading to cell polarity. […]

[1] = tested on: brush border aminopeptidases; conditions: rat brush border aminopeptidases; cited from earlier work
[2] = perfusion into the jejunum, two studies; cited from earlier work

Apparent permeability coefficient Pe + SD (Caco-2 cell monolayers; Table 8, 4 h, 4C Static): 8 ×10⁻⁶ cm/s
Compound: COC(=O)[C@H](Cc1ccccc1)NC(=O)CN(C)C [Compound III, N,N-dimethylglycyl-L-phenylalanine methyl ester]

recovery (in vitro): 100% | mode of transport across the monolayer (Caco-2 cell monolayers; Caco-2): passive diffusion | compound recovered after transport through Caco-2 cell monolayers (Caco-2 cell monolayers; human, Caco-2, 4 h): 100%
Compound: CCCOC(=O)c1ccc(O)cc1 [Propyl paraben, reference compound]

Compound: NCC(=O)N[C@@H](Cc1ccccc1)C(=O)O [glycine-phenylalanine] (H-Gly-Phe-OH)
substrate specificity [1]: 85% | disappearance rate [2]: 68% and 79%
